According to article PMC7826463, “Pamiparib dose escalation in Chinese patients with non‐mucinous high‐grade ovarian cancer or advanced triple‐negative breast cancer” (Cancer Medicine, 2020):

System: Chinese patients with advanced HGOC or TNBC
Test: Safety/tolerability (adverse events per NCI-CTCAE v4.03, DLTs) in phase 1 dose escalation (NCT03333915)
Assay type: in vivo
Settings: for Discontinued treatment: Adverse event: count (percent)
Source text: This phase 1/2, open‐label, multicenter study assessed the safety and antitumor activity of pamiparib in Chinese patients ≥18 years with advanced solid tumors whose disease progressed despite standard therapy or for which there is no standard therapy. Phase 1 was a dose‐escalation study, with a 3 + 3 design, that evaluated the single‐agent safety/tolerability, pharmacokinetic (PK) profile, and preliminary antitumor activity of pamiparib and confirmed the RP2D in Chinese patients (Figure 1). The phase 2 dose‐expansion component of this study is investigating the single‐agent antitumor activity and safety/tolerability of pamiparib.
In phase 1, patients received pamiparib at 20, 40, and 60 mg BID dose levels. The starting dose for pamiparib (20 mg BID) was selected as one‐third of the RP2D (60 mg BID) and one‐fourth of the MTD (80 mg BID), which were determined in the FIH study. […] Safety evaluations, including dose‐limiting toxicities (DLTs), of ≥3 patients completing one cycle of treatment at a specific dose level were required before proceeding to the next cohort with a higher dose level. Patients could continue the study treatment in 21‐day cycles and subsequent cycles at the discretion of the investigator.
The primary objective in phase 1 was to evaluate the safety and tolerability of pamiparib. Safety and tolerability endpoint assessments were based on monitoring of treatment‐emergent adverse events (AEs), in addition to vital signs, electrocardiograms, physical examinations, and clinical laboratory results. The incidence and severity of all AEs and incidence of serious AEs were assessed according to the National Cancer Institute‐Common Terminology Criteria for Adverse Events v4.03.
Approximately 14 to 18 evaluable patients were expected to enroll in the phase 1 part of the study. The safety population included all patients who received ≥1 dose of pamiparib. The PK population included all patients for whom valid pamiparib PK parameters could be estimated. Antitumor activity per RECIST v1.1 was assessed in all evaluable patients. Patients were considered response evaluable if they had measurable disease at baseline per RECIST v1.1 and had ≥1 post‐baseline tumor assessment, unless treatment had been discontinued due to clinical progression or death prior to tumor assessment. The population evaluable for CA‐125 response included patients in the safety population with baseline CA‐125 ≥2 x upper limit of normal.

For `C[C@]12CCCN1CC1=NNC(=O)c3cc(F)cc4[nH]c2c1c34` [pamiparib, Pamiparib], the “Treatment-related adverse event Asthenia, All Grades” value (20 mg BID (n = 4)) was 3 (75.0) n (%), the “Treatment-related adverse event Asthenia, Grade ≥3” value (20 mg BID (n = 4)) was 0 n (%) and the “Treatment-related adverse event Decreased appetite, All Grades” value (20 mg BID (n = 4)) was 3 (75.0) n (%). The “Treatment-related adverse event Decreased appetite, Grade ≥3” value (20 mg BID (n = 4)) was 0 n (%), the “Treatment-related adverse event Decreased hemoglobin, All Grades” value (20 mg BID (n = 4)) was 0 n (%) and the “Treatment-related adverse event Decreased hemoglobin, Grade ≥3” value (20 mg BID (n = 4)) was 0 n (%). The “Treatment-related adverse event Decreased neutrophil count, All Grades” value (20 mg BID (n = 4)) was 1 (25.0) n (%), the “Treatment-related adverse event Decreased neutrophil count, Grade ≥3” value (20 mg BID (n = 4)) was 0 n (%) and the “Treatment-related adverse event Decreased platelet count, All Grades” value (20 mg BID (n = 4)) was 0 n (%). For the same compound, the “Treatment-related adverse event Decreased platelet count, Grade ≥3” value (20 mg BID (n = 4)) was 0 n (%), the “Treatment-related adverse event Decreased white blood cell count, All Grades” value (20 mg BID (n = 4)) was 2 (50.0) n (%) and the “Treatment-related adverse event Decreased white blood cell count, Grade ≥3” value (20 mg BID (n = 4)) was 0 n (%). For the same compound, the “Treatment-related adverse event Diarrhea, All Grades” value (20 mg BID (n = 4)) was 0 n (%), the “Treatment-related adverse event Diarrhea, Grade ≥3” value (20 mg BID (n = 4)) was 0 n (%) and the “Treatment-related adverse event Increased GGT, All Grades” value (20 mg BID (n = 4)) was 1 (25.0) n (%). For the same compound, the “Treatment-related adverse event Increased GGT, Grade ≥3” value (20 mg BID (n = 4)) was 0 n (%), the “Treatment-related adverse event Increased conjugated bilirubin, All Grades” value (20 mg BID (n = 4)) was 1 (25.0) n (%) and the “Treatment-related adverse event Increased conjugated bilirubin, Grade ≥3” value (20 mg BID (n = 4)) was 0 n (%). For the same compound, the “Treatment-related adverse event Nausea, All Grades” value (20 mg BID (n = 4)) was 4 (100.0) n (%), the “Treatment-related adverse event Nausea, Grade ≥3” value (20 mg BID (n = 4)) was 0 n (%) and the “Treatment-related adverse event Prolonged electrocardiogram QT, All Grades” value (20 mg BID (n = 4)) was 1 (25.0) n (%). For the same compound, the “Treatment-related adverse event Prolonged electrocardiogram QT, Grade ≥3” value (20 mg BID (n = 4)) was 1 (25.0) n (%), the “Treatment-related adverse event Somnolence, All Grades” value (20 mg BID (n = 4)) was 1 (25.0) n (%) and the “Treatment-related adverse event Somnolence, Grade ≥3” value (20 mg BID (n = 4)) was 0 n (%). The “Treatment-related adverse event Tachycardia, All Grades” value (20 mg BID (n = 4)) was 0 n (%), the “Treatment-related adverse event Tachycardia, Grade ≥3” value (20 mg BID (n = 4)) was 0 n (%) and the “Treatment-related adverse event Vomiting, All Grades” value (20 mg BID (n = 4)) was 1 (25.0) n (%). For the same compound, the “Treatment-related adverse event Vomiting, Grade ≥3” value (20 mg BID (n = 4)) was 0 n (%), the “Discontinued treatment: Adverse event” value (20 mg BID (n=4)) was 0 and the “Treatment-related adverse event Asthenia, All Grades” value (40 mg BID (n = 4)) was 4 (100.0) n (%). The “Treatment-related adverse event Asthenia, Grade ≥3” value (40 mg BID (n = 4)) was 0 n (%), the “Treatment-related adverse event Decreased appetite, All Grades” value (40 mg BID (n = 4)) was 3 (75.0) n (%) and the “Treatment-related adverse event Decreased appetite, Grade ≥3” value (40 mg BID (n = 4)) was 0 n (%). For the same compound, the “Treatment-related adverse event Decreased hemoglobin, All Grades” value (40 mg BID (n = 4)) was 1 (25.0) n (%), the “Treatment-related adverse event Decreased hemoglobin, Grade ≥3” value (40 mg BID (n = 4)) was 0 n (%) and the “Treatment-related adverse event Decreased neutrophil count, All Grades” value (40 mg BID (n = 4)) was 3 (75.0) n (%). The “Treatment-related adverse event Decreased neutrophil count, Grade ≥3” value (40 mg BID (n = 4)) was 0 n (%), the “Treatment-related adverse event Decreased platelet count, All Grades” value (40 mg BID (n = 4)) was 0 n (%) and the “Treatment-related adverse event Decreased platelet count, Grade ≥3” value (40 mg BID (n = 4)) was 0 n (%). The “Treatment-related adverse event Decreased white blood cell count, All Grades” value (40 mg BID (n = 4)) was 3 (75.0) n (%), the “Treatment-related adverse event Decreased white blood cell count, Grade ≥3” value (40 mg BID (n = 4)) was 0 n (%) and the “Treatment-related adverse event Diarrhea, All Grades” value (40 mg BID (n = 4)) was 1 (25.0) n (%). The “Treatment-related adverse event Diarrhea, Grade ≥3” value (40 mg BID (n = 4)) was 0 n (%), the “Treatment-related adverse event Increased GGT, All Grades” value (40 mg BID (n = 4)) was 1 (25.0) n (%) and the “Treatment-related adverse event Increased GGT, Grade ≥3” value (40 mg BID (n = 4)) was 0 n (%). The “Treatment-related adverse event Increased conjugated bilirubin, All Grades” value (40 mg BID (n = 4)) was 1 (25.0) n (%), the “Treatment-related adverse event Increased conjugated bilirubin, Grade ≥3” value (40 mg BID (n = 4)) was 0 n (%) and the “Treatment-related adverse event Nausea, All Grades” value (40 mg BID (n = 4)) was 3 (75.0) n (%). The “Treatment-related adverse event Nausea, Grade ≥3” value (40 mg BID (n = 4)) was 0 n (%), the “Treatment-related adverse event Prolonged electrocardiogram QT, All Grades” value (40 mg BID (n = 4)) was 1 (25.0) n (%) and the “Treatment-related adverse event Prolonged electrocardiogram QT, Grade ≥3” value (40 mg BID (n = 4)) was 0 n (%). For the same compound, the “Treatment-related adverse event Somnolence, All Grades” value (40 mg BID (n = 4)) was 1 (25.0) n (%), the “Treatment-related adverse event Somnolence, Grade ≥3” value (40 mg BID (n = 4)) was 0 n (%) and the “Treatment-related adverse event Tachycardia, All Grades” value (40 mg BID (n = 4)) was 1 (25.0) n (%). For the same compound, the “Treatment-related adverse event Tachycardia, Grade ≥3” value (40 mg BID (n = 4)) was 0 n (%), the “Treatment-related adverse event Vomiting, All Grades” value (40 mg BID (n = 4)) was 1 (25.0) n (%) and the “Treatment-related adverse event Vomiting, Grade ≥3” value (40 mg BID (n = 4)) was 0 n (%). The “Discontinued treatment: Adverse event” value (40 mg BID (n=4)) was 0, the “Treatment-related adverse event Asthenia, All Grades” value (60 mg BID (n = 7)) was 5 (71.4) n (%) and the “Treatment-related adverse event Asthenia, Grade ≥3” value (60 mg BID (n = 7)) was 0 n (%). The “Treatment-related adverse event Decreased appetite, All Grades” value (60 mg BID (n = 7)) was 3 (42.9) n (%), the “Treatment-related adverse event Decreased appetite, Grade ≥3” value (60 mg BID (n = 7)) was 0 n (%) and the “Treatment-related adverse event Decreased hemoglobin, All Grades” value (60 mg BID (n = 7)) was 5 (71.4) n (%). For the same compound, the “Treatment-related adverse event Decreased hemoglobin, Grade ≥3” value (60 mg BID (n = 7)) was 3 (42.9) n (%), the “Treatment-related adverse event Decreased neutrophil count, All Grades” value (60 mg BID (n = 7)) was 4 (57.1) n (%) and the “Treatment-related adverse event Decreased neutrophil count, Grade ≥3” value (60 mg BID (n = 7)) was 2 (28.6) n (%). For the same compound, the “Treatment-related adverse event Decreased platelet count, All Grades” value (60 mg BID (n = 7)) was 3 (42.9) n (%), the “Treatment-related adverse event Decreased platelet count, Grade ≥3” value (60 mg BID (n = 7)) was 1 (14.3) n (%) and the “Treatment-related adverse event Decreased white blood cell count, All Grades” value (60 mg BID (n = 7)) was 5 (71.4) n (%).
